Source: patent publication US20170071928A1, “METHODS AND PHARMACEUTICAL COMPOSITIONS FOR TREATING DISEASES ASSOCIATED WITH ALTERED SERT ACTIVITY” (THE TRUSTEES OF COLUMBIA UNIVESITY IN THE CITY OF NEW YORK, priority 2014, published 2017)
Like-named read-outs stand apart in the source and are kept apart here.

How the values were obtained:
[1] = tested on: ENCDC isolated from E15 fetal mouse gut; assay: Development/survival of enteric neurons from cultured ENCDC isolated from E15 fetal mouse gut; assay type: cell-based; conditions: ENCDC culture; for development/survival of total enteric neurons / development/survival of early-born (calretinin) neurons / development/survival of late-born enteric neurons that express TH or GABA / effect on development/survival of late-born neurons compared with total neurons: serum-free media; for development/survival of total enteric neurons: prucalopride 2.5 μM, BIMU-8 2.5 μM; for development/survival of early-born (calretinin) neurons / development/survival of late-born enteric neurons that express TH or GABA / effect on development/survival of late-born neurons compared with total neurons: 2.5 μM
Experimental: Immunocytochemistry was performed as follows: HuC/D, TH, g-aminobutyric acid (GABA), nNOS, and CGRP were located immunocytochemically to determine the abundance of total, dopaminergic, GABAergic, nitrergic and CGRP-expressing enteric neurons in G56A mice and their respective WT littermates. SERT immunoreactivity was also investigated to determine whether or not it is coincident with TH immunoreactivity in the myenteric plexus. In each experimental group, tissue samples were collected from ilea of 6-8 animals, fixed with 4% formaldehyde for 1.5 hours and washed in PBS. Whole mount preparations of longitudinal muscle with attached myenteric plexus (LMMP) were prepared by dissection. Cultured cells were fixed with 4% formaldehyde for 30 minutes and washed in PBS. Preparations were blocked with 10% normal horse serum for 30 minutes at room temp and then incubated for 48 or 72 hours at 4° C. with primary antibodies. Bound primary antibodies were visualized, respectively, with streptavidin-Alexa 594 for mouse monoclonal antibodies, and donkey antibodies to goat, rabbit, or sheep IgG coupled to Alexa 350, 488 or 594 (diluted 1:200; Invitrogen). Preparations were washed with PBS, mounted in buffered glycerol, and examined with a Leica CTR 6000 microscope. Images were obtained with a cooled CCD camera and analyzed with computer assistance (Volocity 5.4 imaging software; Improvision, Waltham, Mass.). To count the numbers of HuC/D-immunoreactive cells in each LMMP preparation, a motorized stage under computer control was used to scan and collect images with a 40× objective covering the entirety of a 10 mm^2 area. To count the numbers of CGRP-, nNOS- and TH-immunoreactive cells a similar procedure was used, except that images were collected with a 20× objective and that an area of 30 mm^2 was scanned. The higher magnification was needed for HuC/D-immunoreactive cells to be certain that overlapping cells could be distinguished. The lower magnification was advantageous for TH-immunoreactive cells, which are widely separated and relatively rare, because the cells were scattered and large numbers could be imaged for statistical reliability. The collected images were processed using a computer running Volocity 5.6 software to determine the numbers of immunoreactive cells of each type, which were presented as cells/mm^2. TH-immunoreactive terminal axons in the myenteric plexus of ileum of four G56A SERT and four WT mice were examined to study the effects of G56A SERT on the density of extrinsic sympathetic terminals. Sympathetic axons are far more abundant that dopaminergic axons in the myenteric plexus. Their large varicosities and coarse structure also distinguish sympathetic from dopaminergic axons. Dopaminergic neurons, moreover, are primarily located in the submucosal plexus. In each preparation, 3 images were obtained with a 40× objective. The total area occupied by TH-immunoreactive terminals in each image was obtained with computer assistance (Volocity 5.6 software; Improvision, Perkin Elmer).
The hypothesis was tested that 5-HT-promoted enteric neurogenesis is 5-HT4-mediated. The responsible receptor was also sought. ENCDC were isolated from E15 fetal mouse gut with antibodies to p75NTR and cultured in serum-free media. […] The 5-HT4 antagonist, GR113808 (1.0 μM), prevented 5-HT, prucalopride, or BIMU-8 from enhancing development/survival of total dopaminergic or GABAergic neurons.

G56A mice [2] = assay: Small intestinal transit (rhodamine B dextran geometric center) with exogenous 5-HT; assay type: in vivo, mouse; conditions: G56A mice compared to WT mice (FIG. 2D)
Experimental: For analysis of gastric emptying and small intestinal transit, mice were fasted overnight in cages that lacked bedding. Water was withdrawn 3 hours before the experiment. A solution containing rhodamine B dextran (100 μl; 10 mg/ml in 2% methylcellulose, Invitrogen, Carlsbad, Calif.) was administered to each mouse by gavage through a 21-gauge round-tip feeding needle. Animals were euthanized 15 minutes after gavage; the stomach, small intestine, cecum, and colon were collected in 0.9% NaCl. The small intestine was divided into 10 segments of equal length and the colon (used to obtain total recovered rhodamine B fluorescence) was divided in half. […] Rhodamine fluorescence was measured in 1 ml aliquots of the supernatant (VersaFluor™ Fluorometer; BIO-RAD Laboratories, Hercules, Calif.). The proportion of the Rhodamine B dextran that emptied from the stomach was calculated as [(total recovered fluorescence−fluorescence remaining in the stomach)/(total recovered fluorescence)]×100.
Small intestinal transit was estimated by the position of the geometric center of the Rhodamine B dextran in the small bowel (Miller et al., 1981). For each segment of the small intestine (1-10), the geometric center (a) was calculated as: a=(fluorescence in each segment×number of the segment)/(total fluorescence recovered in the small intestine). […]

G56A mice [3] = assay: GI motility in mature offspring after prenatal and nursing prucalopride treatment, G56A mice; assay type: in vivo, mouse; conditions: prucalopride oral in dams' drinking water (24 mg in 350 ml) from early pregnancy until weaning, then stopped
Experimental: (§1) Carmine red, which cannot be absorbed from the lumen of the gut, was used to study total GI transit time (Kimball et al., 2005). A solution of carmine red (300 μl; 6%; Sigma Aldrich, St. Louis, Mo.) suspended in 0.5% methylcellulose (Sigma Aldrich, St. Louis, Mo.) was administered by gavage through a 21-gauge round-tip feeding needle. The time at which gavage took place was recorded as TO. After gavage, fecal pellets were monitored at 10 minutes intervals for the presence of carmine red. Total GI transit time was considered as the interval between TO and the time of first observance of carmine red in stool.
(§2) Colonic motility was studied as previously described (Li et al., 2006). Briefly, the animals were anesthetized with isoflurane (Baxter Pharmaceutical Products Inc, Deerfield, Ill.). A glass bead (3 mm in diameter) was pushed into the colon to a distance of 2 cm from the anal verge. The time required for expulsion of the glass bead was measured and taken as an estimate of colonic motility.
(§3) The dose of prucalopride was 24 mg into 350 ml of water and the mice were assumed to drink about 5 ml/day. After birth, the prucalopride was continued in the drinking water, and was thus delivered to the newborn and suckling pups via breast milk. When the pups were weaned, the prucalopride was stopped; therefore, the exogenous 5-HT4 stimulation was allowed to cease. […]

[4] = tested on: wild-type adult mice and mice lacking 5-HT4 receptors; conditions: cited from earlier work
WT mice = assay: GI motility in mature offspring after prenatal and nursing prucalopride treatment, WT mice; assay type: in vivo, mouse; conditions: prucalopride treatment of fetal and nursing mice
Experimental: as §1, §2, §3

| Compound | development/survival of total enteric neurons [1] | ability to accelerate small intestinal transit (G56A mice [2]) | development/survival of early-born (calretinin) neurons [1] | development/survival of late-born enteric neurons that express TH or GABA [1] | effect on development/survival of late-born neurons compared with total neurons [1] | antagonism of the enhancement by 5-HT, prucalopride or BIMU-8 of development/survival of total dopaminergic or GABAergic neurons ([1]; GR113808 1.0 μM) | GI motility in offspring at ages 2-3 months (G56A mice [3]) | enteric neurogenesis ([4]; adult mice lacking 5-HT4 receptors) | enteric neurogenesis ([4]; wild-type adult mice) | GI motility in the mature animals (WT mice) |
| --- | --- | --- | --- | --- | --- | --- | --- | --- | --- | --- |
| NCCc1c[nH]c2ccc(O)cc12 [5-HT, 5-hydroxytryptamine] | enhanced the development/survival of total enteric neurons | impaired |  |  |  |  |  |  |  |  |
| CC(C)n1c(=O)n(C(=O)NC2CC3CCC(C2)N3C)c2ccccc21 (stereo not drawn) [BIMU-8] | enhanced the development/survival of total enteric neurons |  | Neither prucalopride nor BIMU-8 enhanced | increased development/survival | significantly greater than on total |  |  |  |  |  |
| Cn1cc(C(=O)OCC2CCN(CCNS(C)(=O)=O)CC2)c2ccccc21 [GR113808] |  |  |  |  |  | prevented |  |  |  |  |
| COCCCN1CCC(NC(=O)c2cc(Cl)c(N)c3c2OCC3)CC1 [prucalopride] | enhanced the development/survival of total enteric neurons |  | Neither prucalopride nor BIMU-8 enhanced | increased development/survival | significantly greater than on total |  | restored to normal | not in those lacking 5-HT4 receptors | stimulate enteric neurogenesis | not found to exert significant effects |
